Experimental data published in US6784201B2, “Benzothiepines having activity as inhibitors of ileal bile acid transport and taurocholate uptake” (G.D. Searle & Company, priority 1994, dated 2004).
Like-named read-outs stand apart in the source and are kept apart here.

Assays:
human IBAT = molecular target: T1, human IBAT (Homo sapiens, UniProt Q12908); test: In vitro assay of IBAT-mediated uptake of [14C]-taurocholate (TC) in H14 cells; type: cell-based
T1 construct: expressed in transfected cells; host or cells: Baby hamster kidney (BHK) cells, clone H14
T1 sequence (Q12908 1-348): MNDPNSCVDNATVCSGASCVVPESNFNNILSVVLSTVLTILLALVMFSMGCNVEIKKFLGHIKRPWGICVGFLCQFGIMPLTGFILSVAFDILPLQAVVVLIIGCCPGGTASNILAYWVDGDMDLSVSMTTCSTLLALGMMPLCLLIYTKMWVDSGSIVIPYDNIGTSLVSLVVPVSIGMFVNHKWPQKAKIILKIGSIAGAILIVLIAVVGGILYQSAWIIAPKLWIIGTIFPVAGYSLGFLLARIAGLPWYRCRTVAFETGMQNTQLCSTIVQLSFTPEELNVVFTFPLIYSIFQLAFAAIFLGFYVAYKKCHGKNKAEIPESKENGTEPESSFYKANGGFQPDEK
Outline: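 BHK cells stably expressing human IBAT (H14) were incubated 2 h at 37° C with compound and 3 μM final [14C]-taurocholate in DMEM (4.5 g/L glucose) plus 0.2% fatty acid-free BSA. After cold PBS washes, cell-associated radioactivity was measured by scintillation counting.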

H14 cells = test: In vitro assay of uptake of [14C]-alanine; type: cell-based, hamster; details: Mesocricetus auratus
Protocol: Baby hamster kidney cells (BHK) transfected with the cDNA of human IBAT (H14 cells) are seeded at 60,000 cells/well in 96 well Top-Count tissue culture plates for assays run within in 24 hours of seeding, 30,000 cells/well for assays run within 48 hours, and 10,000 cells/well for assays run within 72 hours.
On the day of assay, the cell monolayer is gently washed once with 100 μl assay buffer (Dulbecco's Modified Eagle's medium with 4.5 g/L glucose+0.2% (w/v) fatty acid free bovine serum albumin-(FAF)BSA). To each well 50 μl of a two-fold concentrate of test compound in assay buffer is added along with 50 μl of 6 μM [^14C]-taurocholate in assay buffer (final concentration of 3 μM [^14C]-taurocholate). The cell culture plates are incubated 2 hours at 37° C. prior to gently washing each well twice with 100 μl 4° C. Dulbecco's phosphate-buffered saline (PBS) containing 0.2% (w/v) (FAF)BSA. The wells are then gently washed once with 100 μl 4° C. PBS without (FAF)BSA. To each 200 μl of liquid scintillation counting fluid is added, the plates are heat sealed and shaken for 30 minutes at room temperature prior to measuring the amount of radioactivity in each well on a Packard Top-Count instrument.
In Vitro Assay of Compounds that Inhibit Uptake of [^14C3-Alanine
The alanine uptake assay is performed in an identical fashion to the taurocholate assay, with the exception that labeled alanine is substituted for the labeled taurocholate.

[1] = system: Rat Ileal Uptake of [14C]-Taurocholate; test: In vivo assay of rat ileal uptake of [14C]-taurocholate into bile (ileal loop); details: for activity at 500 µM: 0.5 mM; for activity at 100 µM: read-out: % of Control Transport of TC in Rat Ileum @ 0.1 mM
Protocol: In Vivo Assay of Compounds that Inhibit Rat Ileal Uptake of [^14C]-Taurocholate into Bile
(See “Metabolism of 3α,7β-dihydroxy-7α-methyl-5β-cholanoic acid and 3α,7β-dihydroxy-7α-methyl-5β-cholanoic acid in hamsters” in Biochimica et Biophysica Acta 833 (1985) 196-202 by Une et al.)
Male wistar rats (200-300 g) are anesthetized with inactin @100 mg/kg. Bile ducts are cannulated with a 10″ length of PE10 tubing. The small intestine is exposed and laid out on a gauze pad. A canulae (⅛″ luer lock, tapered female adapter) is inserted at 12 cm from the junction of the small intestine and the cecum. A slit is cut at 4 cm from this same junction (utilizing a 8 cm length of ileum). 20 ml of warm Dulbecco's phosphate buffered saline, pH 6.5 (PBS) is used to flush out the intestine segment. The distal opening is cannulated with a 20 cm length of silicone tubing (0.02″ I.D.×0.037″ O.D.). The proximal cannulae is hooked up to a peristaltic pump and the intestine is washed for 20 min with warm PBS at 0.25 ml/min. Temperature of the gut segment is monitored continuously. At the start of the experiment, 2.0 ml of control sample ([^14C]-taurocholate @ 0.05 mi/ml with 5 mM cold taurocholate) is loaded into the gut segment with a 3 ml syringe and bile sample collection is begun. Control sample is infused at a rate of 0.25 ml/min for 21 min. Bile samples fractions are collected every 3 minute for the first 27 minutes of the procedure. After the 21 min of sample infusion, the ileal loop is washed out with 20 ml of warm PBS (using a 30 ml syringe), and then the loop is washed out for 21 min with warm PBS at 0.25 ml/min. A second perfusion is initiated as described above but this with test compound being administered as well (21 min administration followed by 21 min of wash out) and bile sampled every 3 min for the first 27 min. If necessary, a third perfusion is performed as above that typically contains the control sample.

[2] = system: Rabbit Ileal brush border membranes; test: [3H]taurocholate uptake in rabbit brush border membrane vesicles (BBMV); type: biochemical; details: read-out: TC-uptake (BBMV) IC(50)
Protocol: [^3H]Taurocholate Uptake in Rabbit Brush Border Membrane Vesicles (BBMV)
Rabbit Ileal brush border membranes were prepared from frozen iheal mucosa by the calcium precipitation method describe by Malathi et al. (Reference: (1979) Biochimica Biophysica Acta, 554, 259). The method for measuring taurocholate was essentially as described by Kramer et al. (Reference: (1992) Biochimica Biophysica Acta, 1111, 93) except the assay volume was 200 μl instead of 100 μl.

fecal bile acid (FBA) = test: Rat gavage assay (fecal bile acid increase); type: in vivo
[3] = H14 cells, Table 5, read-out: IC50 uM (In vitro Taurocholate Cell Uptake)
[4] = Rattus norvegicus, read-out: % of Control Transport of TC in Rat Ileum
[5] = In Vitro Taurocholate Uptake, Table 10, read-out: Human TC IC50

Row | IC50 (human IBAT; [3]) | melting point | IC50 (human IBAT; [5]) | SMILES | Delta (micromoles fecal bile acid per day) (fecal bile acid (FBA); dose 2 mg/kg/day) | Delta (micromoles fecal bile acid per day) (fecal bile acid (FBA); dose .016 mg/kg/day) | Delta (micromoles fecal bile acid per day) (fecal bile acid (FBA); dose .08 mg/kg/day) | Delta (micromoles fecal bile acid per day) (fecal bile acid (FBA); dose .4 mg/kg/day) | also measured
1 | 40 µM |  |  | CCCC[C@]1(CC)CS(=O)(=O)c2ccccc2[C@@H](c2ccccc2)C1=O (relative stereo) [Example 5b, trans-3-Butyl-3-ethyl-5-phenyl-2,3-dihydro-benzothiepin-(5H) 4-one-1,1-dioxide] |  |  |  |  | inhibition at 100 µM (H14 cells): 0%; activity at 500 µM [1, 4]: 72.9 ± 5.4%
2 | 5 µM |  |  | CCCC[C@@]1(CC)C[C@@H](c2ccccc2)c2ccccc2S(=O)(=O)C1 (relative stereo) [Example 9a, cis-3-Butyl-3-ethyl-5-phenyl-2,3,4,5-tetrahydrobenzothiepine-1,1-dioxide] |  |  |  |  | inhibition at 25 µM (H14 cells): 0%; activity at 100 µM ([1]; Rattus norvegicus): 53.7%
3 | 2 µM |  |  | CCCC[C@]1(CC)CS(=O)(=O)c2ccccc2[C@H](c2ccccc2)[C@@H]1O [Example 6c, (3α,4α,5α) 3-Butyl-3-ethyl-4-hydroxy-5-phenyl-2,3,4,5-tetrahydrobenzothiepine-1,1-dioxide] |  |  |  |  | inhibition at 100 µM (H14 cells): 58.5%; activity at 400 µM ([1]; Rattus norvegicus, 0.4 mM, read-out: % of Control Transport of TC in Rat Ileum): 68.8%
4 | 0.6 µM |  |  | CCCC[C@]1(CC)CS(=O)(=O)c2ccccc2[C@@H](c2ccccc2)[C@H]1O [Example 6d, (3α,4β,5β) 3-Butyl-3-ethyl-4-hydroxy-5-phenyl-2,3,4,5-tetrahydrobenzothiepine-1,1-dioxide] |  |  |  |  | IC50 (human IBAT; Table 6, read-out: TC-uptake (H14 cells) IC(50)): 0.6 µM; inhibition at 100 µM (H14 cells): 77.7%; activity at 150 µM ([1]; Rattus norvegicus, 0.15 mM, read-out: % of Control Transport of TC in Rat Ileum): 30.2%; activity at 500 µM [1, 4]: 16.1%; EC50 ([1]; rat ileal loop, read-out: TC-uptake Ileal Loop EC(50)): 31 µM; IC50 [2]: 1.5 µM
5 | 2 µM |  |  | CCCC[C@]1(CC)CS(=O)(=O)c2cc(OC)ccc2[C@H](c2ccccc2)[C@@H]1O [Example 26, (3α,4α,5α) 3-Butyl-3-ethyl-4-hydroxy-8-methoxy-5-phenyl-2,3,4,5-tetrahydrobenzothiepine-1,1-dioxide] |  |  |  |  | inhibition at 25 µM (H14 cells): 31%; activity at 100 µM ([1]; Rattus norvegicus): 87.9%
6 |  | 185 to 186 °C |  | CC1(C)CS(=O)(=O)c2ccc(N)cc2[C@@H](c2ccccc2)[C@H]1O [Example 288] |  |  |  |  | inhibition at 6.25 µM (H14 cells; @ 6.25 μM, read-out: Alanine Uptake Percent Inhibition @ μM): 10%
7 |  | 118 °C | 0.003 µM | CCCCC1(CCCC)CS(=O)(=O)c2ccc(N(C)C)cc2[C@@H](c2ccc(OCCCCCC(C(=O)O)C(=O)O)cc2)[C@H]1O [Example 1413, (4S-cis)-[5-[4-[3,3-Dibutyl-7-(dimethylamino)-2,3,4,5-tetrahydro-4-hydroxy-1,1-dioxido-1-benzothiepin-5-yl]phenoxy]pentyl]propanedioic acid] |  |  |  |  | Delta (micromoles fecal bile acid per day) (fecal bile acid (FBA); dose 5 mg/kg/day): 52.3 micromoles fecal bile acid per day; Delta (micromoles fecal bile acid per day) (fecal bile acid (FBA); dose .04 mg/kg/day): 19 micromoles fecal bile acid per day; Delta (micromoles fecal bile acid per day) (fecal bile acid (FBA); dose .2 mg/kg/day): 42.4 micromoles fecal bile acid per day
8 |  | 193 to 197 °C | < 0.001 µM | CCCCC1(CCCC)CS(=O)(=O)c2ccc(N(C)C)cc2[C@@H](c2ccc(OCCCCC[N+](C)(C)CC[N+](C)(C)CC)cc2)[C@H]1O [Example 1418, (4R-cis)-N-[5-[4-[3,3-Dibutyl-7-(dimethylamino)-2,3,4,5-tetrahydro-4-hydroxy-1,1-dioxido-1-benzothiepin-5-yl]phenoxy]pentyl]-N′-ethyl-N,N,N′,N′-tetramethyl-1,2-ethanediaminium dichloride] | 20.3 micromoles fecal bile acid per day | −10 micromoles fecal bile acid per day | −4.6 micromoles fecal bile acid per day | 29.5 micromoles fecal bile acid per day | 
9 |  | 80 to 85 °C | 0.011 µM | CCCCC1(CCCC)CS(=O)(=O)c2ccc(N(C)C)cc2[C@@H](c2ccc(OCCCCCc3nn[nH]n3)cc2)[C@H]1O [Example 1420, (4R-cis)-3,3-Dibutyl-7-(dimethylamino)-2,3,4,5-tetrahydro-5-[4-[[5-(1H-tetrazol-5-yl)pentyl]oxy]phenyl]-1-benzothiepin-4-ol 1,1-dioxide] | 53.1 micromoles fecal bile acid per day | 29.6 micromoles fecal bile acid per day | 38.1 micromoles fecal bile acid per day | 45 micromoles fecal bile acid per day | 
10 |  | 143 °C | 0.004 µM | CCCCC1(CCCC)CS(=O)(=O)c2ccc(N(C)C)cc2[C@@H](c2ccc(OCCCCCOc3cc(C(=O)O)nc(C(=O)O)c3)cc2)[C@H]1O [Example 1421] | 57.8 micromoles fecal bile acid per day | 4.7 micromoles fecal bile acid per day | 25.3 micromoles fecal bile acid per day | 27.7 micromoles fecal bile acid per day | 
11 |  | 105 to 107 °C | 0.003 µM | CCCCC1(CCCC)CS(=O)(=O)c2ccc(N(C)C)cc2[C@@H](c2ccc(OCc3cccc(CCC(=O)O)n3)cc2)[C@H]1O [Example 1430, (4R-cis)-6-[[4-[3,3-Dibutyl-7-(dimethylamino)-2,3,4,5-tetrahydro-4-hydroxy-1,1-dioxido-1-benzothiepin-5-yl]phenoxy]methyl]-2-pyridinepropanoic acid] | 51.2 micromoles fecal bile acid per day | −5.6 micromoles fecal bile acid per day | 20.7 micromoles fecal bile acid per day | 50.4 micromoles fecal bile acid per day | 
12 |  | 119.5 °C | 0.026 µM | CCCCC1(CCCC)CS(=O)(=O)c2ccc(N(C)C)cc2[C@@H](c2ccc(OCCOCCC(C(=O)O)C(=O)O)cc2)[C@H]1O [Example 1432, (4S-cis)-[2-[2-[4-[3,3-Dibutyl-7-(dimethylamino)-2,3,4,5-tetrahydro-4-hydroxy-1,1-dioxido-1-benzothiepin-5-yl]phenoxy]ethoxy]ethyl]propanedioic acid] |  |  |  |  | Delta (micromoles fecal bile acid per day) (fecal bile acid (FBA); dose 5 mg/kg/day): 36.2 micromoles fecal bile acid per day; Delta (micromoles fecal bile acid per day) (fecal bile acid (FBA); dose .04 mg/kg/day): 2.4 micromoles fecal bile acid per day; Delta (micromoles fecal bile acid per day) (fecal bile acid (FBA); dose .2 mg/kg/day): 9.7 micromoles fecal bile acid per day
